pEC50: −log10 of the molar value. Non-standard residues stand in square brackets, D forms with d. Residues, ends and D or L forms follow the SMILES beside them. *: point of attachment. NH(4-picolyl) = c1cc(CN*)ccn1; dNle = CCCC[C@@H](N)C(=O)O
Columns and labels:
[1] = target: kappa opioid receptor (Homo sapiens, UniProt P41145); experiment: Opioid receptor activation assay, DiscoveRx PathHunter Beta-Arrestin, kappa; format: cell-based; settings: PathHunter Beta-Arrestin; for pEC50: 3-6 repeats, read-out: 95% confidence levels of EC50, activation of kappa receptors
kappa opioid receptor, sequence (P41145 whole entry): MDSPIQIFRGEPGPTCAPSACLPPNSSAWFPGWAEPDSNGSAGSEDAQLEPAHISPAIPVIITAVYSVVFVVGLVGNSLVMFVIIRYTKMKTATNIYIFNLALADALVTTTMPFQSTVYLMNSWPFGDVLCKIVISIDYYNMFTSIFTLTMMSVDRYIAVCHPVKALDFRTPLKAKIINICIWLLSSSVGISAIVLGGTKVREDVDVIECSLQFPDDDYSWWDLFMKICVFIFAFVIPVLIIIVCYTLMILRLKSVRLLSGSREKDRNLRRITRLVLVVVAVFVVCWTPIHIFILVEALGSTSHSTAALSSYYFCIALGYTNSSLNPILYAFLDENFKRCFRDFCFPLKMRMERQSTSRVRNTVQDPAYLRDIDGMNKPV
Description: Opioid Receptor Activation Assay.
PathHunter™ Beta-Arrestin GPCR Functional Profiling and Screening cell lines that express the individual opioid receptors were obtained from DiscoveRx (Fremont, Calif.). These cells express the kappa (or mu or delta) opioid receptor fused to a proprietary β-galactosidase enzyme fragment and the […]-arrestin gene fused to an enzyme acceptor (the remaining fragment of β-galactosidase). Upon activation of the receptor, β-arrestin is recruited to the GPCR and the β-galactosidase is activated through enzyme complementation. Cells were grown using standard cell culture techniques and then plated at 30,000 cells/well in 90 μl in a 96 well white, clear bottom plate and incubated overnight. Dilutions were prepared in dilution buffer (HBBS, 20 mMHepes, 0.1% BSA) and 10 μl added per well. Plates were then incubated for 90 min at 37° C. in a water-saturated atmosphere. Plates were then allowed to come to room temp and DiscoveRx's proprietary developing agent added as recommended by the manufacturer. This agent contains a detergent, 6-O-β-galactopyranosyl-luciferen and luciferase. Plates were then incubated for 1 hr at room temperature before being read on a luminometer. Antagonist studies were performed in an identical manner except after the overnight incubation 10 μl media was removed and replaced with drug or naloxone at the indicated concentration. […] To calculate % maximal luminescence, background was subtracted from the experimental values and this was divided by maximal luminescence and multiplied by 100.
To confirm this, and to determine their relative activities, we assessed their efficiency using PathHunter™ Beta-Arrestin GPCR Functional Profiling and Screening cell lines from DiscoveRx (Fremont, Calif.) as described in the Materials and Methods section.

[2] = test system: peripheral pain (acetic acid-induced writhing); experiment: Acetic acid-induced writhing model (Example 1); format: in vivo, rat (male Sprague-Dawley); settings: oral gavage, screening dose 20 mg/kg, 20 min before i.p. 3% acetic acid; Student's t-test p<0.05
Experimental: Acetic Acid-Induced Writhing Model.
This protocol is a well-established model of peripheral pain. Following oral or i.v. administration of compound, rats are rested for 20 min before i.p. injection with 2 ml/kg of 3% acetic acid. Animals are then rested an additional 10 min before being placed in a 10×10 inch chamber. A video of the rats is then recorded for next 20 min. The video is subsequently blindly scored by an investigator who examines each rat every 20 sec for the entire 20 min (60 individual observations). At each observation rats are scored on whether they are writhing or not. Writhing is defined as a constriction of the abdominal area, often with extension of the hind legs. At the end of the experiment the percent of the time the animal was writhing was calculated. The dose-response curves and EC50 values were generated using GraphPad Prism®.
As an initial biological screen the potential for oral availability of the 18 peptides in our library were evaluated in a well-established model of peripheral pain, the acetic acid-induced writhing assay. Rats were administered the various compounds by oral gavage at a screening dose of 20 mg/kg 20 min before i.p. injection with 2 ml/kg of 3% acetic acid. 10 min later animals were assessed for writhing as indicated in the methods section. […] Thus, several of the Arg modifications can impart CR665 with the ability to cross the gut barrier. Compounds 3, 7, 9, 11 and 17 were selected for further analysis.

[3] = test system: abuse liability (lever pressing for intravenous drug delivery); experiment: Self-administration model; format: in vivo, rat; settings: cocaine 50 ug/50 ul bolus infusion, 7 days, after replacing JT09
Description: Self-Administration Model.
Addiction/dependence is a critical side effect of opioids and must be evaluated with any new member of this family. The most reliable test of abuse liability with the most translational relevance is a contingent drug self-administration model, in which rats are trained to press a lever for intravenous drug delivery. Sixteen standard self-administration chambers (30×20×20 cm, Med Associates) were housed inside sound-attenuating cubicles fitted with a fan for airflow and to mask noise. Each chamber contained two retractable levers, two stimulus lights, a speaker for tone delivery, and a house light to provide general illumination. In addition, each chamber was equipped with a balanced metal arm and spring leash attached to a swivel (Instech). Tygon® tubing extended through the leash and was connected to a 10 ml syringe mounted on an infusion pump located outside the sound-attenuating cubicle. Rats were anesthetized with i.p. injections of ketamine (66 mg/kg; Vedcolnc, St Joseph, Mo., USA), xylazine (1.3 mg/kg; Lloyd Laboratories, Shenandoah, Iowa, USA), and equithesin (0.5 ml/kg); sodium pentobarbital (4 mg/kg), chloral hydrate (17 mg/kg), and 21.3 mg/kg magnesium sulfate heptahydrate dissolved in 44% propylene glycol, 10% ethanol solution). Ketorolac (2.0 mg/kg, i.p. Sigma, St. Louis, Mo., USA) was given just prior to surgery as an analgesic. One end of a silastic catheter was inserted 33 mm into the external right jugular and secured with 4.0 silk sutures. The other end ran subcutaneously and exited from a small incision just below the scapula. This end is attached to an infusion harness (Instech Solomon, Plymouth Meeting, Pa., USA) that provides access to an external port for IV drug delivery. […]
During self-administration, rats received an IV infusion (0.1 ml) of 10 U/ml heparinized saline before each session. […] Cocaine was chosen for comparison purposes because it is readily self-administered.

[4] = test system: sedation (distance traveled); experiment: Locomotor open field test; settings: JT09 20 mg/kg p.o.; morphine 10 mg/kg i.p.
Experimental: Locomotor Open Field Test.
Sedation and a loss of muscle coordination are common CNS-mediated side effects of opioids. To assess the sedative effects of JT09, rats were given JT09 (20 mg/kg, p.o.) or morphine (10 mg/kg, i.p.) 20 min before placement in an automated (68 l×21 w×21 h cm) activity chambers for a 30 min test. Morphine was used as a comparison group due to its well-known sedative effects.

[5] = test system: central pain (acute thermal stimuli); experiment: Hot plate model (Example 2); format: in vivo, rat; settings: JT compounds 20 mg/kg oral; morphine 10 mg/kg i.p.
Experimental: The hotplate model evaluates central pain attenuation in a rodent after applying an acute thermal stimuli. Experimental rats were orally gavaged with lead compounds JT07 or JT09 (20 mg/kg) and rested for 20 min prior to being placed on the hotplate. Control rats received i.p. injections of morphine (10 mg/kg) and rested for 20 min prior to be being placed on the hotplate. Rats were then assessed over time on a hotplate analgesia meter (Columbus Instruments, Columbus, Ohio), essentially a flat surface maintained at 53.0+/−0.2° C. The time until the rat lifted, nibbled, or shook one of its hind paws was recorded, which is known as the response latency. Animals remained on the hotplate no longer that 30 sec to avoid tissue damage. Experiments were scored as the percent of maximal possible effect (% MPE) calculated using the following equation: % MPE=[(post-drug latency−pre-drug latency)/(cut-off pre-drug latency)]×100%. The dose response curves and EC50 values were generated using GraphPad Prism.
As an initial screen for analgesic activity, JT07 and JT09 were evaluated in the hotplate analgesic model using a standard oral dose of 20 mg/kg. Percent maximum possible effect was analyzed for each compound and compared to morphine (10 mg/kg, i.p.).

[6] = test system: central pain (acute thermal stimuli); experiment: Hotplate model (Example 1); format: in vivo, rat (male Sprague-Dawley); settings: morphine at 5 mg/kg
Experimental: The hotplate model evaluates central pain attenuation in a rodent after applying an acute thermal stimuli. The rat is treated with compound and assessed over time on a hotplate analgesia meter (Columbus Instruments, Columbus, Ohio), essentially a flat surface maintained at 53.0+/−0.2° C. The time until the rat lifts, nibbles or shakes one of its hind paws is recorded, which is known as the response latency. Animals remain on the hotplate no longer than 30 sec to avoid tissue damage. Experiments are scored as the percent of maximal possible effect (% MPE) calculated using the following equation: % MPE=[(post-drug latency−pre-drug latency)/(cut-off pre-drug latency)]×100%. The dose response curves and EC50 values were generated using GraphPad Prism®.
As discussed, central availability of a kappa agonist can lead to undesirable side effects. To assess the peripheral to central selectivity of compound 9 an i.v. dose response of this drug was performed in both a model of peripheral pain (A. the writhing assay) and central pain (B. the hotplate assay). The ratio of EC50s for each of these assays can then be used to determine the peripheral selectivity of the drug.

Compound | EC50, activation of kappa opioid receptor [1] | pEC50 [1] | other results
CCCC[C@@H](NC(=O)[C@@H](Cc1ccccc1)NC(=O)[C@H](N)Cc1ccccc1)C(=O)N[C@H](CCC[N+](C)(C)C)C(=O)NCc1ccncc1 [Compound 17] | low nM range | 6.78 to 7.33 | 
CCCC[C@@H](NC(=O)[C@@H](Cc1ccccc1)NC(=O)[C@H](N)Cc1ccccc1)C(=O)N[C@H](CCCNC(=N)N)C(=O)NCc1ccncc1 [CR665, D-Phe-D-Phe-D-Nle-D-Arg-NH-4-Picolyl, reference compound] (H-[dF][dF][dNle][dR]-{NH(4-picolyl)}) | low nM range | 7.88 to 8.04 | effect on writhing (outward physical signs of peripheral pain) versus saline control [2]: did not have a significant effect
COC(=O)[C@H]1[C@@H](OC(=O)c2ccccc2)C[C@@H]2CC[C@H]1N2C [cocaine, reference compound] |  |  | number of cocaine infusions (nose-poke) [3]: increased over the 7 days
CN1CC[C@]23c4c5ccc(O)c4O[C@H]2[C@@H](O)C=C[C@H]3[C@H]1C5 [morphine] |  |  | sedation in locomotor test [4]: highly sedative; analgesic activity in hotplate model (% maximum possible effect) [5]: potent analgesic; time of maximum response in hotplate assay [6]: 15 min
CCCC[C@@H](NC(=O)[C@@H](Cc1ccccc1)NC(=O)[C@H](N)Cc1ccccc1)C(=O)N[C@H](CCCCNC1CCCCC1)C(=O)NCc1ccncc1 [Compound 7] | low nM range | 7.88 to 8.25 | 
CCCC[C@@H](NC(=O)[C@@H](Cc1ccccc1)NC(=O)[C@H](N)Cc1ccccc1)C(=O)N[C@H](CCCCNCc1ccccc1)C(=O)NCc1ccncc1 [Compound 11] | low nM range | 7.57 to 8.09 | 
CCCCNC(=N)NCCC[C@@H](NC(=O)[C@@H](CCCC)NC(=O)[C@@H](Cc1ccccc1)NC(=O)[C@H](N)Cc1ccccc1)C(=O)NCc1ccncc1 [Compound 3] | low nM range | 7.73 to 8.86 | 

— patent publication US20200316159A1, “SUSTAINED RELEASE COMPOSITIONS OF KAPPA-OPIOID RECEPTOR AGONIST” (JT PHARMACEUTICALS, INC., priority 2016, published 2020)
